Source: patent US10155798B2, “Anti-obesity compounds derived from neuromedin U” (The Regents of the University of California, priority 2013, dated 2018)
Where a SMILES comes first, the peptide text is derived from it. [ ]: non-standard residue; d: D form. The star is where a group is joined. PEG12 = NCCOCCOCCOCCOCCOCCOCCOCCOCCOCCOCCOCCOCCC(=O)O; Palmitoyl = CCCCCCCCCCCCCCCC(=O)*; Aib = CC(C)(N)C(=O)O

Assays:
[1] = target: T1, NMUR2 (neuromedin U 2 receptor) (Homo sapiens, UniProt Q9GZQ4); assay: Calcium mobilization assay, HEK-NMU2 cells; type: cell-based; conditions: HEK293 cells expressing NMU2 receptor, NA = not active
T1 construct: expressed in transfected cells; host or cells: HEK293 (HEK-NMU2)
Method: To test whether neuromedin U can be modified/derivatized to yield truncated bioactive compound(s) that may be useful as therapeutics, we synthesized a small library (25 peptides) of hNMU analogs utilizing various stabilization protocols, including: cyclization, lipidation, introduction of α,α-disubstituted and N-methylated amino acids, retro-inverso-approach, and combination of such (see Table 1). Subsequently all analogues were tested against human neuromedin U receptors (NMUR1 and NMUR2) in calcium mobilization assay (collaboration with Dr Gary Willars, University of Leicester, UK).
HEK293 cells expressing either the neuromedin U 1 receptor or neuromedin U 2 receptor (HEK-NMU1 and HEK-NMU2 respectively) were grown to approximately 90% confluence in ELISA strip plates (96-well format) pre-coated with poly-D-lysine (0.1% w/v) and loaded for 45 min at 37° C. with 2 iM fluo-4-AM in Krebs'-HEPES buffer with bovine serum albumin (KHB-BSA; composition: 10 mM HEPES; 4.2 mM NaHCO3; 11.7 mM D-glucose; 1.18 mM MgSO4.7H2O; 1.18 mM KH2PO4; 4.69 mM KCl; 118 mM NaCl; 1.3 mM CaCl2.2H2O; 0.1% (w/v) BSA; pH 7.4). Monolayers were then washed and equilibrated for 5 min at 37° C. in 100 il KHB-BSA for subsequent recording of fluorescence as an index of intracellular [Ca^2+] ([Ca^2+]i) using a microplate reader (NOVOstar; BMG LABTECH, Aylesbury, U.K.). Briefly, 20 μl of KHB-BSA, with or without ligand, was added into the well (200 μl/s) and fluorescence determined at 0.5 s intervals by excitation at 485 nm and collection of emitted light at 520 nm. Changes in fluorescence above basal levels (before ligand addition) were determined. […] Fmax was obtained by removal of buffer and addition of KHB-BSA buffer containing 4 mM [Ca^2+] and ionomycin (2 μM) to representative wells and the fluorescence measured for 10 min. Fmin was then derived by replacing buffer with Ca^2+-free KHB-BSA buffer containing 2 mM EGTA and fluorescence measured for 10 min. For the determination of concentration-response relationships, the maximal change in [Ca^2+]i was calculated following ligand addition. Concentration-response curves were then fitted using a four-parameter logistic equation to determine EC50 values (GraphPad Software Inc., Calif.).

[2] = test system: diet induced obese (DIO) mouse model; assay: Single dose in vivo anorectic experiments in DIO mouse model; conditions: DIO mice
Text: FIG. 3. Single dose in vivo experiments performed in DIO mouse model. (A) Comparison of anorectic effects of NM4 and NM7. (B) NM4 dose response experiments. (C) Comparison of NM4 and NM4A anorectic activity.
Initially we focused on single dose experiments comparing NM4 and NM7 at 5344 nMole/kg dose (FIG. 3).

[3] = test system: male DIO C57BL/6 mice; assay: Chronic in vivo experiments in DIO mice (body weight, food intake, gastric emptying); design: species or system mouse
Method: FIG. 4. Anorectic effects of NM4A in chronic in vivo experiments. (A) Ad libitum fed male DIO C57BL/6 mice were treated with either vehicle or NM4A (2.2 mg/kg; 1603 nMole/kg) every 2, 4 or 7 days for 21 days. (B) Ad libitum fed male DIO C57BL/6 mice were treated with either vehicle or NM4A (2.2 mg/kg; 1603 nMole/kg) once a week for 21 days. After initial treatment animals were kept either on high-fat diet (FD) or normal diet (ND).
FIG. 6. (A) Comparison of anorectic effects of NM4A & NM4-C16 analogs in chronic in vivo experiments. Ad libitum fed male DIO C57BL/6 mice were treated with either vehicle or NM4A (2.2 mg/kg; 1603 nMole/kg) or NM4-C16 (2.6 mg/kg; 1603 nMole/kg) every 7 days for 21 days. (B) Food intake of animals treated with NM4-C16 (2.6 mg/kg; 1603 nMole/kg) every 7 days for 21 days.
NM4A was characterized further in in vivo chronic experiments. Ad libitum fed male DIO C57BL/6 mice, which were kept on the high fat diet (Cat #D12492, Research Diets, Inc., New Brunswick, N.J.), were treated subcutaneously (s.c.) with either vehicle or NM4A (2.2 mg/kg; 1603 nMole/kg) either every 2, 4 or 7 days for 21 days. […] To determine whether NM4A can be used as an auxiliary in dieting of the obese subjects we tested its efficiency in once weekly regimen at the 2.2 mg/kg dose. In this case, ad libitum fed male DIO C57BL/6 mice were kept either on the high fat diet (FD) or regular diet (ND) during NM4A's administration.
Despite limited success with our “double-lipidation” approach, we decided to test NM4-C16 analog in vivo using once weekly subcutaneous injection regimen at the 2.6 mg/kg dose, which is equimolar to previously used NM4A dose (e.g. 1603 nMole/kg).
All animal experiments were approved by the UCLA Animal Care and Use Committee (ARC #1999-173-23) and conformed to local and national guidelines. Ad libitum fed male DIO C57BL/6 mice (n=8 per group) kept on D12492, a high-fat diet composed of 60% Kcal from fat (Research Diets, Inc., New Brunswick, N.J.) were weighed and individually dosed (s.c., 30 min prior to the onset of the dark phase of the light cycle) with either vehicle or NM4A (2.2 mg/kg; 1603 nMole/kg) every 2 days or NM4A (2.2 mg/kg; 1603 nMole/kg) every 4 days or NM4A (2.2 mg/kg; 1603 nMole/kg) every 7 days or NM4-C16 (2.6 mg/kg; 1603 nMole/kg) every 7 days for 21 days and their food intake and body weight were measured daily. […] Briefly, calculated amount of the desired peptide (1 eq) and 10 equivalents of PUREBRIGHT® SL-220 (1 mg: 10 mg) were solubilized in minimal volume of 90% absolute ethyl alcohol in water. Subsequently solution was aliquoted into Eppendorf tubes and freeze-dried. Obtained solid residue was re-solubilized in the proper amount of PBS directly before use by vortexing.

[4] = test system: male DIO C57BL/6 mice; assay: Abdominal fat evaluation of chronically treated animals; type: in vivo, mouse; conditions: chronic treatment 21 days, 1603 nMole/kg; vehicle ~8%
Method: (§1) FIG. 7. (A) Abdominal fat evaluation of chronically treated animals. Ad libitum fed male DIO C57BL/6 mice were treated with either vehicle or NM4A (2.2 mg/kg; 1603 nMole/kg) every 2 days or NM4A (2.2 mg/kg; 1603 nMole/kg) every 4 days or ^(*)NM4-C16 (2.6 mg/kg; 1603 nMole/kg) every 7 days for 21 days. Subsequently, their abdominal fat was harvested and weighted. Results are expressed as % of abdominal fat per total body weight. (B) Distribution of NM4A in NM4A chronically treated animals (2.2 mg/kg; every 2 days for 28 days).
For three groups of animals treated every 2, 4 and 7 days we also performed abdominal fat evaluation (FIG. 7A).

[5] = Body distribution of NM4A in chronically treated animals; type: in vivo, mouse; conditions: 2.2 mg/kg every 2 days for 28 days
Method: as §1
To test body distribution of NM-analogs we performed also limited ADME studies in animals that underwent chronic treatment with NM4A every 2 days for 28 days (2.2 mg/kg; 1603 nMole/kg dose).
Ad libitum fed male DIO C57BL/6 mice that underwent chronic treatment with NM4A (2.2 mg/kg; 1603 nMole/kg; dosing every 2 days for 28 days) were sacrificed and their organs/tissues harvested and weighted. […] Obtained homogenate(s) were transferred to 1.5 mL Eppendorf tubes and centrifuged for 10 min at 13000 rpm.

[6] = Water solubility; type: physicochemical
[7] = cited from earlier work

T1 sequence (Q9GZQ4 whole entry): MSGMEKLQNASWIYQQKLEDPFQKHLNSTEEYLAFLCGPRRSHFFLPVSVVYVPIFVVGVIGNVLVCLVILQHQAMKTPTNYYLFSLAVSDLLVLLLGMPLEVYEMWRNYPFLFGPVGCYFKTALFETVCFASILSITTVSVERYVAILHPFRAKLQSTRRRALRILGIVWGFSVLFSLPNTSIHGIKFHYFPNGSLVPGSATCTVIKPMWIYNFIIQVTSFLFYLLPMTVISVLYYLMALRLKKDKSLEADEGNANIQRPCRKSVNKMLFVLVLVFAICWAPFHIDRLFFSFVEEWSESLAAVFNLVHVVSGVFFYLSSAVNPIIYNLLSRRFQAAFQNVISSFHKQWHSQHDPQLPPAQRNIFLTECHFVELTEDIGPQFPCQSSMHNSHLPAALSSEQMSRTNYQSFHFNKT

In the case of `CCCCCCCCCCCCCCCCNC(=O)CNCC(=O)NC(C)(C)C(=O)N[C@@H](Cc1ccccc1)C(=O)N[C@@H](CC(C)C)C(=O)N[C@@H](Cc1ccccc1)C(=O)N[C@@H](CCCNC(=N)N)C(=O)N1CCC[C@H]1C(=O)N[C@@H](CCCNC(=N)N)C(=O)N[C@@H](CC(N)=O)C(N)=O` [Peptide M4A, Ida^NHPal-Aib-FL-Phe-Arg-Pro-R-Asn], the EC50 [1] is reported as 6.46 ± 0.89 nM, the “duration of anorectic effects after single dose administration” value ([2]; 1603 nMole/kg, 2.2 mg/kg) is reported as at most 20 days and the “in vivo activity relative to NM4” value ([2]; single dose, FIG. 3C) is reported as “at least 3.5 times”. The “body weight, once weekly regimen as auxiliary in dieting” value ([3]; 2.2 mg/kg once a week for 21 days, high fat diet (FD) or regular diet (ND)) was “additional body weight decrease”, the “anorectic effects, chronic treatment” value ([3]; s.c. 2.2 mg/kg every 2 and every 4 days for 21 days, high fat diet) was “potent anorectic effects” and the “anorectic effects, chronic treatment, less frequent dosage” value ([3]; s.c. 2.2 mg/kg every 7 days for 21 days, high fat diet) was “limited activity”. For the same compound, the “gastric emptying in experimental animals” value ([3]; s.c. 1603 nMole/kg, chronic regimen) was “causes initially gastric emptying”, the “abdominal fat content (% of abdominal fat per total body weight)” value [4] was about 5% and the “entry into the brain” value [5] was “does not appear to enter the brain effectively”. The “tissue with highest content” value [5] was “highest content of NM4A is detected in plasma” and the water solubility [6] was “limited water solubility”.
In the case of `CCCCCCCCCCCCCCCC(=O)NCCOCCOCCOCCOCCOCCOCCOCCOCCOCCOCCOCCOCCC(=O)NC(C)(C)C(=O)N[C@@H](Cc1ccccc1)C(=O)N[C@@H](CC(C)C)C(=O)N[C@@H](Cc1ccccc1)C(=O)N[C@@H](CCCNC(=N)N)C(=O)N1CCC[C@H]1C(=O)N[C@@H](CCCNC(=N)N)C(=O)N[C@@H](CC(N)=O)C(=O)NC(C)(C)C(N)=O` [Peptide M7, Pal-dPEG12-Aib-FL-Phe-Arg-Pro-R-Asn-Aib] ({Palmitoyl-PEG12}-[Aib]FLFRPRN[Aib]-NH2; N-terminus and C-terminus assumed), the “anorectic activity, single dose” value ([2]; single dose 5344 nMole/kg, FIG. 3A) is reported as “very limited activity in vivo”.
In the case of “Neuromedin U (FRVDEEFQSPFASQSRGYFLFRPRN) [NMU]”, the “half-life after subcutaneous (sc) injection” value ([7]; subcutaneous injection) is listed as “less than 5 min”.
In the case of semaglutide, the plasma half-life ([7]; in vivo) is given as 160 h.
